Measured values: US20130136691A1, “GASTRIN […] PEPTIDE COMPOUNDS” (priority 2008, published 2013)

Key:
human GRP-R = target: T1, human GRP-R (Homo sapiens, UniProt P30550); assay: Competition assay with 125I-BBN for GRP-R in PC3 cells (IC50); format: binding; conditions: competition with 125I-BBN
T1 construct: host or cells: PC3 / PC-3 human prostate cancer cells (intact, plated)
Protocol: To identify potential lead compounds, an in vitro assay that identifies compounds with high affinity for GRP-R was used.
PC3 (human prostate cancer cell line) were obtained from the American Type Culture Collection and cultured in RPMI 1640 (ATCC) in tissue culture flasks (Corning). This growth medium was supplemented with 10% heat inactivated FBS (Hyclone, SH30070.03), 10 mM HEPES (GibcoBRL, 15630-080), and antibiotic/antimycotic (GibcoBRL, 15240-062) for a final concentration of penicillin-streptomycin (100 units/mL), and fungizone (0.25 μg/mL). […] Cells for experiments were plated at a concentration of 2.0×10^4/well either in 96-well white/clear bottom microtiter plates (Falcon Optilux-I) or 96 well black/clear collagen I cellware plates (Beckton Dickinson Biocoat). Plates were used for binding studies on day 1 or 2 post-plating.
RPMI 1640 (ATCC) supplemented with 20 mM HEPES, 0.1% BSA (w/v), 0.5 mM PMSF (AEBSF), Bacitracin (50 mg/500 ml), pH 7.4. ^125I-BBN (carrier free, 2200 Ci/mmole) was obtained from Perkin-Elmer.
A 96-well plate assay was used to determine the IC50 of various compounds of the invention to inhibit binding of ^125I-BBN to human GRP-R. The following general procedure was followed:
All compounds tested were dissolved in binding buffer and appropriate dilutions were also done in binding buffer. PC3 cells (human prostate cancer cell line) for assay were plated at a concentration of 2.0×10^4/well either in 96-well white/clear bottomed microtiter plates (Falcon Optilux-I) or 96 well black/clear collagen I cellware plates (Beckton Dickinson Biocoat). Plates were used for binding studies on day 1 or 2 post-plating. The plates were checked for confluency (>90% confluent) prior to assay. […] These studies were conducted with an assay volume of 75 μl per well. Triplicate wells were used for each data point. After the addition of the appropriate solutions, plates were incubated for 1 h at 4° C. to prevent internalization of the ligand-receptor complex. Incubation was ended by the addition of 200 μl of ice-cold incubation buffer. Plates were washed 5 times and blotted dry. Radioactivity was detected using either the LKB CompuGamma counter or a microplate scintillation counter.
All of the PC3 studies were performed as described in Example XLIII using ^125I-BBN. Selection of compounds for the assay was based on linker subtype.
PC3 cell lines were obtained from ATCC(CRL-1435) and cultured in RPMI 1640 (ATCC) supplemented with 2 mM L-glutamine, 1.5 g/L Sodium bicarbonate, 10 mM HEPES and 10% FBS. […]
All compounds tested were dissolved in binding buffer and appropriate dilutions were also done in binding buffer. […] Radioactivity was detected using either a LKB CompuGamma counter or a microplate scintillation counter.

[1] = test system: BT-474 tumor-bearing nude mice; conditions: 1 hr; + Tamoxifen/+ ES, day 14, n = 3; control 2.18 ± 0.63
Protocol: Female nude mice ([Ncr]-Foxn1) received hormone supplementation by administration of 17β-estradiol via 60 day time released pellets implanted s.c. (0.72 mg/60 Day release; 0.6 mg/kg; Innovative Research of America, Sarasota, Fla.). Four to seven days after beginning hormone treatment, the mice were xenografted with ten million BT-474 cells in Matrigel (1:1 with PBS) s.c. to the flank. The 1713 estradiol is required for tumor cell growth in this model.
Control mice received vehicle-only time release pellets (in addition to hormone support).

[2] = breast cancer (30% have HER2/neu, 30% treated respond); cited from earlier work
[3] = test system: GRP receptor binding in PC-3 prostate cancer cells; assay: Single plate assay: dasatinib effect on 177Lu-AMBA binding (Bmax) and proliferation (CCK-F) in PC-3 cells; format: cell-based; conditions: Homo sapiens, 100 nM Dasatinib, read-out: inhibition of growth (cell proliferation)
Protocol: The cells were plated on Day 0 (7.5k/well 96-well PE Scintiplate). […] To determine the cell numbers and the proliferation, 100 uL of 10% CCK-F solution in DPBS (Molecular technologies) was added to the same plate, incubated for 30 min at 37° C. and the relative fluorescence (RFU) measured at 535 nm. Base on the cell numbers and the ^177Lu-binding, the Bmax (fmoles bound/million cells) was calculated, and the results compared with the control.

[4] = test system: GRP receptor binding in T47D human breast cancer cells; assay: Effect of drug treatment on GRP receptor binding (177Lu-AMBA) and proliferation in T-47D cells; format: cell-based; conditions: T-47D, relative to untreated control
Text: T-47D breast cancer cells (human metastatic mammary gland ductal adenocarcinoma isolated from pleural effusion, ER+, PR+) were obtained from the American Type Culture Collection.

[5] = test system: GRP receptor binding in PC-3 prostate cancer cells; assay: Effect of drug treatment on GRP receptor binding (177Lu-AMBA) and proliferation in PC-3 cells; conditions: PC-3
Protocol: (§1) RPMI 1640 supplemented with 20 mM HEPES, 0.1% BSA (w/v), 0.5 mM PMSF (AEBSF), bacitracin (50 mg/500 ml), pH 7.4.
(§2) Treatment: BT-474 cells were plated on Day 0 (see above); approximately 24-48 h after plating, treatment Days 1 and 2 (DT1, DT2), the medium was removed and replaced with fresh growth medium (control), or growth medium with the addition of lapatinib (0.1-1.0 μM). […] Incubations were stopped by the addition of 200 μL of ice-cold binding buffer. Plates were washed three more times with binding buffer, 140 μL of scintillation fluid was added to each well, the plates were sealed and analyzed on a Microp plate reader (Microbeta Trilux, Perkin-Elmer).
(§3) Treatment: BT-474 cells were plated on Day 0 and treated on Days 1 and 2 (DT1, DT2).

[6] = test system: ZR-75-1 human breast cancer cells; assay: Glucose uptake (2-NBDG) in ZR-75-1 cells after 4-hydroxytamoxifen; format: cell-based; conditions: for % Change in 2-NBDG: ZR-75-1 cells
Protocol: For the glucose uptake study, a fluorescently labeled2-deoxyglucose derivative (2-NBDG) was used. […] The cell numbers were determined with CCK-F treatment as described above.
(§4) The ZR-75-1 cells were seeded at 15K per well onto two 96-well scintiplates on the same day as 2 days study.

[7] = test system: GRP receptor binding in ZR-75-1 human breast cancer cells; assay: 4-hydroxytamoxifen effect on 177Lu-AMBA binding and proliferation in ZR-75-1 cells (2 to 12 days); format: cell-based; conditions: for % Change in Proliferation / % change in 177Lu-AMBA Uptake: ZR-75-1 cells
Protocol: Method: ZR-75-1 breast cancer cell line (human ductal carcinoma with estrogen receptor) was obtained from the American Type Culture Collection (ATCC).
ZR-75-1 cells were plated on Day 0 (40k/well 96-well PE Scintiplate). […] To determine the cell numbers and the proliferation, 100 uL of 10% CCK-F solution in DPBS (Molecular technologies) was added to the same plate, incubated for 30 min at 37° C. and the relative fluorescence (RFU) measured at 535 nm. Based on the cell numbers and the ^177Lu-binding, the Bmax (fmoles bound/million cells) was calculated.
ZR-75-1 breast cancer cell lines were cultured as described above.
as §4

[8] = test system: GRP receptor binding in BT-474 human breast cancer cells; assay: Effect of drug treatment on GRP receptor binding (177Lu-AMBA) and proliferation in BT-474 cells; conditions: BT-474; relative to untreated control; drug 0.1-1.0 μM (4-OH Tamoxifen 0.001-0.1 μM)
Protocol: Cells for binding experiments were plated on Day 0 at 5.6×10^4 cells/cm^2 in 96-well white/clear bottom microtiter plates (Falcon Optilux-I), or 96 well black/clear collagen I cellware plates (Beckton Dickinson Biocoat).
as §1, §2, §3

[9] = test system: human PC-3 nude mouse model; format: in vivo; conditions: i.v.
Protocol: 10-50 μCi of the HPLC purified compounds were administered to each mouse by i.v. tail vein injection, n=4 per group. At 1 h, 1 and 7 days post injection, the mice were terminated and the organs and tissues were harvested. Radioactivity was assayed in a gamma counter. The data was expressed as percentage of the total administered radioactivity (% ID) for the urine combined with the bladder, as well as for the blood pool; and percentage of the total administered radioactivity per gram (% ID/g) for all the other tested organs.

[10] = ZR-75-1, 1-100 nM, treatment on days 2 and 3
[11] = drug 0.1-1.0 μM (4-OH Tamoxifen 0.001-0.1 μM)

T1 sequence (P30550 whole entry): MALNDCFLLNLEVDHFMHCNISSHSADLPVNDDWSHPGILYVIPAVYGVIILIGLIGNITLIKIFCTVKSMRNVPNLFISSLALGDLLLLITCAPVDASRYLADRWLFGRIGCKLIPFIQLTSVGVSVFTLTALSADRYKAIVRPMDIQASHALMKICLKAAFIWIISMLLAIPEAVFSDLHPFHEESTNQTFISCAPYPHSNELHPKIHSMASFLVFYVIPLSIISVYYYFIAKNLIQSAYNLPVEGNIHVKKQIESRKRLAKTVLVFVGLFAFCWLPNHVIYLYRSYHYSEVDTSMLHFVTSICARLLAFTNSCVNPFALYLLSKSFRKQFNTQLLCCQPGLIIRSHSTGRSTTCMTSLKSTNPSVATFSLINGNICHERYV

## DO3A-Gly-Abz-4-Gln-Trp-Ala-Val-Gly-His-Phe-Leu-NH2 [Compound L300]
Human GRP-R
  competition for GRP-R in PC3 cells (in words): high activity at the GRP-R

## CC/C(=C(\c1ccccc1)c1ccc(OCCN(C)C)cc1)c1ccccc1 [Tamoxifen]
[1]
  177Lu-AMBA in Tumor (% ID/g): 0.70 ± 0.39 % ID/g

## N-[(3β,5β,12α)-3-[[[4,7,10-Tris(carboxymethyl)-1,4,7,10-tetraazacyclododec-1-yl]acetyl]amino]-glycyl-4-aminobenzoyl-L-glutaminyl-L-tryptophyl-L-alanyl-L-valyl-glycyl-L-histidyl-L-phenylalanyl-L-methioninamide [Compound L228]
Human GRP-R
  competition for GRP-R in PC3 cells (in words): maintains GRP-R activity

## Herceptin
[2]
  overall response: 9%

## Cc1nc(Nc2ncc(C(=O)Nc3c(C)cccc3Cl)s2)cc(N2CCN(CCO)CC2)n1 [dasatinib]
[3]
  inhibition at 0.1 µM: ≤ 33%
[4]; drug 0.1-1.0 μM (gefitinib 0.1-10 μM)
  increase in 177Lu-AMBA binding (GRP receptor specific signal per cell): up to 500%
[5]; relative to untreated control, drug 0.1-1.0 μM
  increase in 177Lu-AMBA binding (GRP receptor specific signal per cell): up to 250%

## N-[(3β,5β,12α)-3-[[[4,7,10-Tris(carboxymethyl)-1,4,7,10-tetraazacyclododec-1-yl]acetyl]amino]-glycyl-4-aminobenzoyl-L-glutaminyl-L-tryptophyl-L-alanyl-glycyl-L-histidyl-L-phenylalanyl-L-leucinamide [Compound L224]
Human GRP-R
  competition for GRP-R in PC3 cells (in words): complete loss of binding

## CC/C(=C(\c1ccc(O)cc1)c1ccc(OCCN(C)C)cc1)c1ccccc1 [4-OH Tamoxifen]
[6]; ZR-75-1, 100 nM, 2-12 days
  2-NBDG uptake, long-term treatment, in words: smaller changes
[6]; [10]
  decrease in glycolysis (2-NBDG uptake): ~20%
[6]; 100 nM, 5 days of treatment
  % Change in 2-NBDG: −47.5%
[6]; 100 nM, 12 days of treatment
  % Change in 2-NBDG: 14.5%
[4]; [11]
  decrease in 177Lu-AMBA binding (GRP receptor specific signal per cell): up to 35%
[5]; [11]
  GRP receptor specific signal per cell (177Lu-AMBA binding) versus untreated controls, in words: no change
[7]; ZR-75-1, 100 nM everyday, by 12 day
  inhibition of proliferation, long-term treatment: 28%
[7]; ZR-75-1, 100 nM, 2-12 days
  177Lu-AMBA uptake, long-term treatment, in words: significant reduction
[7]; [10]
  cell proliferation, in words: little change
[7]; 100 nM, 5 days of treatment
  % Change in Proliferation: −11.3 (±8.3) %
  % change in 177Lu-AMBA Uptake: −77.4 (+1.6) %
[7]; 100 nM, 12 days of treatment
  % Change in Proliferation: −28.0 (±14.1) %
  % change in 177Lu-AMBA Uptake: −72.3 (±14.6) %
[7]; 2 days of treatment
  % Change in Proliferation: −7.2 (±3.8%
  % change in 177Lu-AMBA Uptake: −65.9 (±9.7) %
[8]
  decrease in 177Lu-AMBA binding (GRP receptor specific signal per cell): up to 73%

## N-[(3β,5β,12α)-3-[[[4,7,10-Tris(carboxymethyl)-1,4,7,10-tetraazacyclododec-1-yl]acetyl]amino]-glycyl-4-aminobenzoyl-L-leucyl-L-tryptophyl-L-alanyl-L-valinyl-glycyl-L-serinyl-L-phenylalanyl-L-methioninamide [Compound L225]
Human GRP-R
  competition for GRP-R in PC3 cells (in words): reduces competition at the GRP-R

## CC1(N(CC(=O)O)CC(=O)O)CN(CC(=O)O)[C@@H]2CCCC[C@H]2N(CC(=O)O)C1 [XX100]
[9]; 177Lu complex, 72 h timepoint
  Blood 7 d % ID (*72 h timepoint): 0.00 ± 0.00 % ID
  Tumor 7 d % ID/g (*72 h timepoint): 0.01 ± 0.00 % ID/g
[9]; Lu-177 complexes, 1 h, 1 and 7 days
  distribution of radioactivity (in words): rapidly cleared from the body with little residual localization in any organs or tissue
